In the supplement of paper PMC12463676, “Small-molecule dissolution of stress granules by redox modulation benefits ALS models” (Nature Chemical Biology, 2025):

Experiments:
potassium arsenate = compound: O=[As]([O-])(O)O.[K+] [potassium arsenate]; assay: thermal stability z-score vs DMSO; higher = more thermally stabilized by treatment; settings: HeLa; arsenate concentration 1 mM
Method: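 Cellular thermal proteome profiling in HeLa cells treated with 1 mM arsenate for 1 h (DMSO pretreatment), heated to ten temperatures (37-66.3 °C). Soluble protein was quantified by TMT mass spectrometry relative to DMSO controls; the thermal stability score was transformed to a z-score; mean of n = 3 experiments.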

lipoamide = compound: NC(=O)CCCCC1CCSS1 [lipoamide]; assay: as above; settings: HeLa, lipoamide concentration 100 µM
Method: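 Cellular thermal proteome profiling in HeLa cells. Cells were treated with 100 µM lipoamide for 1 h, with or without 1 mM arsenate for a further 1 h, then heated to ten temperatures (37-66.3 °C), and soluble protein was quantified by TMT mass spectrometry relative to 0.1% DMSO controls. The thermal stability score (sum of log2 fold changes minus the abundance score) was transformed to a z-score; mean of n = 3 experiments.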

[1] = arsenate co-treatment: 1 mM arsenate 1 h
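Note: each temperature applied for 3 min, abundance score taken as mean log2 fold change at the two lowest temperatures, z-score obtained by mean subtraction and division by SD.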

PUS3 (UniProt Q9BZE2)
thermal stability z-score (potassium arsenate): 2.26
thermal stability z-score (lipoamide; [1]): 0.378
thermal stability z-score (lipoamide; arsenate co-treatment: none): -0.095

RNF10 (UniProt Q8N5U6)
thermal stability z-score (potassium arsenate): -0.23
thermal stability z-score (lipoamide; [1]): -0.0188
thermal stability z-score (lipoamide; arsenate co-treatment: none): -0.286

SBF2 (UniProt Q86WG5)
thermal stability z-score (potassium arsenate): -0.179
thermal stability z-score (lipoamide; [1]): -0.149
thermal stability z-score (lipoamide; arsenate co-treatment: none): -0.0174

DDX55 (UniProt Q8NHQ9)
thermal stability z-score (potassium arsenate): 0.0246
thermal stability z-score (lipoamide; [1]): 0.693
thermal stability z-score (lipoamide; arsenate co-treatment: none): 0.58

GAMT (UniProt Q14353)
thermal stability z-score (potassium arsenate): -0.0271
thermal stability z-score (lipoamide; [1]): -0.374
thermal stability z-score (lipoamide; arsenate co-treatment: none): 0.506

HNRNPAB (UniProt Q99729)
Sequence of UniProt Q99729 (Q99729 whole entry): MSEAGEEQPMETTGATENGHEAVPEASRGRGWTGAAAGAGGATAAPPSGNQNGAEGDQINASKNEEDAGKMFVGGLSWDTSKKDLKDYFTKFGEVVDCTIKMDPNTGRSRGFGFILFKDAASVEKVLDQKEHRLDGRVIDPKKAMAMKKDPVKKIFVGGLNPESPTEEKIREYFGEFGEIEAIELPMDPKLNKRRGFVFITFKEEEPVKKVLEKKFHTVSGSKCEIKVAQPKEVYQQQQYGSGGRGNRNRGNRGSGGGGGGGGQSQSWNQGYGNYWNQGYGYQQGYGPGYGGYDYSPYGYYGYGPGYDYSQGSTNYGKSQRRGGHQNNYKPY
thermal stability z-score (potassium arsenate): -0.447
thermal stability z-score (lipoamide; [1]): 0.89
thermal stability z-score (lipoamide; arsenate co-treatment: none): 0.554

PPP2R5E (UniProt Q16537)
thermal stability z-score (potassium arsenate): 0.682
thermal stability z-score (lipoamide; [1]): 0.219
thermal stability z-score (lipoamide; arsenate co-treatment: none): 0.285

ZBED1 (UniProt O96006)
thermal stability z-score (potassium arsenate): 0.00958
thermal stability z-score (lipoamide; [1]): -0.243
thermal stability z-score (lipoamide; arsenate co-treatment: none): -0.292

UNC45A (UniProt Q9H3U1)
thermal stability z-score (potassium arsenate): 0.158
thermal stability z-score (lipoamide; [1]): -0.649
thermal stability z-score (lipoamide; arsenate co-treatment: none): -0.167

ADRBK1 (UniProt P25098)
thermal stability z-score (potassium arsenate): 0.052
thermal stability z-score (lipoamide; [1]): 0.556
thermal stability z-score (lipoamide; arsenate co-treatment: none): 0.421

PURB (UniProt Q96QR8)
thermal stability z-score (potassium arsenate): 0.364
thermal stability z-score (lipoamide; [1]): 0.083
thermal stability z-score (lipoamide; arsenate co-treatment: none): 0.15

CCND3 (UniProt P30281)
thermal stability z-score (potassium arsenate): -0.0207
thermal stability z-score (lipoamide; [1]): 0.241
thermal stability z-score (lipoamide; arsenate co-treatment: none): 0.374

BICD1 (UniProt Q96G01)
thermal stability z-score (potassium arsenate): -1.74
thermal stability z-score (lipoamide; [1]): -1.17
thermal stability z-score (lipoamide; arsenate co-treatment: none): -1.22

PLD1 (UniProt Q13393)
thermal stability z-score (potassium arsenate): 0.0184
thermal stability z-score (lipoamide; [1]): -0.0197
thermal stability z-score (lipoamide; arsenate co-treatment: none): 0.0638

PIGG (UniProt Q5H8A4)
thermal stability z-score (potassium arsenate): 0.14
thermal stability z-score (lipoamide; [1]): -0.479
thermal stability z-score (lipoamide; arsenate co-treatment: none): -0.752

NOSIP (UniProt Q9Y314)
thermal stability z-score (potassium arsenate): 2.36
thermal stability z-score (lipoamide; [1]): -1.04
thermal stability z-score (lipoamide; arsenate co-treatment: none): -0.0974

FBXO7 (UniProt Q9Y3I1)
thermal stability z-score (potassium arsenate): -0.35
thermal stability z-score (lipoamide; [1]): -0.692
thermal stability z-score (lipoamide; arsenate co-treatment: none): -0.573

POLA2 (UniProt Q14181)
thermal stability z-score (potassium arsenate): -0.183
thermal stability z-score (lipoamide; [1]): -0.305
thermal stability z-score (lipoamide; arsenate co-treatment: none): -0.0588

AK1 (UniProt P00568)
thermal stability z-score (potassium arsenate): -0.267
thermal stability z-score (lipoamide; [1]): -0.242
thermal stability z-score (lipoamide; arsenate co-treatment: none): 0.28

SLC25A35 (UniProt Q3KQZ1)
thermal stability z-score (potassium arsenate): 0.172
thermal stability z-score (lipoamide; [1]): 0.135
thermal stability z-score (lipoamide; arsenate co-treatment: none): -0.276

EHD4 (UniProt Q9H223)
thermal stability z-score (potassium arsenate): -0.477
thermal stability z-score (lipoamide; [1]): 0.435
thermal stability z-score (lipoamide; arsenate co-treatment: none): 0.326

RPRD1B (UniProt Q9NQG5)
Sequence of UniProt Q9NQG5 (Q9NQG5 whole entry): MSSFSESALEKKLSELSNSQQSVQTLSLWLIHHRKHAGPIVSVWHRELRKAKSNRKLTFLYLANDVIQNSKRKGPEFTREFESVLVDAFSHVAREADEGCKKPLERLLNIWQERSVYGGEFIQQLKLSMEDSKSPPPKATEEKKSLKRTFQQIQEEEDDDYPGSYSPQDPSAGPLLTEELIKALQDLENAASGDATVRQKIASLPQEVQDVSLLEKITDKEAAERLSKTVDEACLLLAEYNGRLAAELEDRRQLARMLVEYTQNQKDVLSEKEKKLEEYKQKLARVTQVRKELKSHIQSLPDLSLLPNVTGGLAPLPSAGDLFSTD
thermal stability z-score (potassium arsenate): 0.808
thermal stability z-score (lipoamide; [1]): 0.793
thermal stability z-score (lipoamide; arsenate co-treatment: none): 0.977

DHX34 (UniProt Q14147)
Sequence of UniProt Q14147 (Q14147 whole entry): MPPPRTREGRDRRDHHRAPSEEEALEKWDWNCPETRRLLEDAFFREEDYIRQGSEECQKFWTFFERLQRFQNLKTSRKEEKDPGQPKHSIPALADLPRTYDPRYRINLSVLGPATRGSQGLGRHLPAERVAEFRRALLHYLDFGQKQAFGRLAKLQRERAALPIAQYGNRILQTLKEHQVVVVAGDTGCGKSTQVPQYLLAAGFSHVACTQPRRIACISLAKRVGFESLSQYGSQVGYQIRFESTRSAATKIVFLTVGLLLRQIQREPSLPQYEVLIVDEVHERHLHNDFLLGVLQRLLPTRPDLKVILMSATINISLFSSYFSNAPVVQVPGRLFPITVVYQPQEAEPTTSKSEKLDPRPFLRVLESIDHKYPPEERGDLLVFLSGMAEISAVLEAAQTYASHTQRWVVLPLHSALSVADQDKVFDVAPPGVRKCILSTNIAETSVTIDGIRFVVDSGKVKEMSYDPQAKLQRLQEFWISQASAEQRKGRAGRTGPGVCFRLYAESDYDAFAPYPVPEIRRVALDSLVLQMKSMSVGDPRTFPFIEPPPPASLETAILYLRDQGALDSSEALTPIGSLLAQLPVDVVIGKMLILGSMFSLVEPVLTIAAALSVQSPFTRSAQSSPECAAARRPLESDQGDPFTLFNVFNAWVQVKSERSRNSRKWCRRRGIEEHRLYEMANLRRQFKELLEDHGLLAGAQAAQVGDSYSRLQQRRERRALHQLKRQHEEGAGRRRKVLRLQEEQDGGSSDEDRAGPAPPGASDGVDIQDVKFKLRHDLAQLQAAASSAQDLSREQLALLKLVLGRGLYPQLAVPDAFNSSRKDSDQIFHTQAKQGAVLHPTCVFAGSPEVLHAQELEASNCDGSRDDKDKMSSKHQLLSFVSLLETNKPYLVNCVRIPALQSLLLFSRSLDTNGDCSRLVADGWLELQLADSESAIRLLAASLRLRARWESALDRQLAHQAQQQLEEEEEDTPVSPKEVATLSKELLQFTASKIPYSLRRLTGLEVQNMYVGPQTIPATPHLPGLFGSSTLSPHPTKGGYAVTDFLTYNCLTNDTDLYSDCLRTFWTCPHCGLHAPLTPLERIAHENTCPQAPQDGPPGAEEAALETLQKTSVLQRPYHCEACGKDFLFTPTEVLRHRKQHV
thermal stability z-score (potassium arsenate): -0.164
thermal stability z-score (lipoamide; [1]): 0.0163
thermal stability z-score (lipoamide; arsenate co-treatment: none): -0.0341

MICU1 (UniProt Q9BPX6)
thermal stability z-score (potassium arsenate): 0.746
thermal stability z-score (lipoamide; [1]): -0.305
thermal stability z-score (lipoamide; arsenate co-treatment: none): -0.0396

COX7B (UniProt P24311)
thermal stability z-score (potassium arsenate): -0.0702
thermal stability z-score (lipoamide; [1]): -0.0929
thermal stability z-score (lipoamide; arsenate co-treatment: none): -0.0319

EEF1G (UniProt P26641)
Sequence of UniProt P26641 (P26641 whole entry): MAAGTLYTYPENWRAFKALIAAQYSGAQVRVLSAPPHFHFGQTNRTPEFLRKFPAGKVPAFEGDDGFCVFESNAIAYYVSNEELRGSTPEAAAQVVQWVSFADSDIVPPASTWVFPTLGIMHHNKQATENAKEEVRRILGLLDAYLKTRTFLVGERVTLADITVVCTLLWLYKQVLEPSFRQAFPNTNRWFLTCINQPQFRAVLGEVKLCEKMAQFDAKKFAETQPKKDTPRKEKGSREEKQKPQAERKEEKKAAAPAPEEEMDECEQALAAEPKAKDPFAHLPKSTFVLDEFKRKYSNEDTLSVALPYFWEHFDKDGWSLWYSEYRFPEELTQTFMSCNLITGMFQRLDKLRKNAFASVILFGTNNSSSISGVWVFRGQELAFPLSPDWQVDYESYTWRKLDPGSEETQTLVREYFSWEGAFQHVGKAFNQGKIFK
thermal stability z-score (potassium arsenate): 0.215
thermal stability z-score (lipoamide; [1]): 0.0213
thermal stability z-score (lipoamide; arsenate co-treatment: none): 0.149

SRSF2 (UniProt Q01130)
Sequence of UniProt Q01130 (Q01130 whole entry): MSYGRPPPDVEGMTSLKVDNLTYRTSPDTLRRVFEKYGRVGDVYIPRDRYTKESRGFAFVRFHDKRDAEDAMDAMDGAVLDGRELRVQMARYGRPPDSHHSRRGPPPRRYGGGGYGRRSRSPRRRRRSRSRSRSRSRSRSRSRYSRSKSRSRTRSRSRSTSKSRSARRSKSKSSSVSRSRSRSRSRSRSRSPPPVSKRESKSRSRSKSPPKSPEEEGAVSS
thermal stability z-score (potassium arsenate): -0.0469
thermal stability z-score (lipoamide; [1]): 0.414
thermal stability z-score (lipoamide; arsenate co-treatment: none): 0.274

RPS6KA1 (UniProt Q15418)
Sequence of UniProt Q15418 (Q15418 whole entry): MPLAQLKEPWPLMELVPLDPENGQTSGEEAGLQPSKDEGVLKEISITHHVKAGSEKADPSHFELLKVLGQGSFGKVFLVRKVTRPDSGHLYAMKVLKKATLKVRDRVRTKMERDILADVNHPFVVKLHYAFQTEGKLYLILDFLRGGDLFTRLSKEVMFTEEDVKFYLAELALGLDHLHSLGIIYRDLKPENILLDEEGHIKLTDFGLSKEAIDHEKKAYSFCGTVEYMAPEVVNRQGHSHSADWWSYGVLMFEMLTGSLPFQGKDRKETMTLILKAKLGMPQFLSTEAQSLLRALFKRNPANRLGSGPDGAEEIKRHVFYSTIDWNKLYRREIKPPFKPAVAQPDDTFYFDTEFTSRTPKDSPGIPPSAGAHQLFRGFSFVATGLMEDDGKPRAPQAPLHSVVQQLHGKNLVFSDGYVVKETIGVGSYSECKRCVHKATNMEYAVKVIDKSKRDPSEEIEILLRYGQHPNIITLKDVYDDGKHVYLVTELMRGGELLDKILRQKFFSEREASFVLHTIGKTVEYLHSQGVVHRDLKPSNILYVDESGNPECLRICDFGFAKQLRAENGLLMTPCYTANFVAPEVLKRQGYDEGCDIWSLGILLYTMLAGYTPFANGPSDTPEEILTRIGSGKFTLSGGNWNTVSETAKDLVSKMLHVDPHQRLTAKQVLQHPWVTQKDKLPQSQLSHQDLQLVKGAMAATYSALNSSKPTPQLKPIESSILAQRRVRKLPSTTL
thermal stability z-score (potassium arsenate): 0.0783
thermal stability z-score (lipoamide; [1]): -0.0567
thermal stability z-score (lipoamide; arsenate co-treatment: none): -0.413

TMX4 (UniProt Q9H1E5)
Sequence of UniProt Q9H1E5 (Q9H1E5 whole entry): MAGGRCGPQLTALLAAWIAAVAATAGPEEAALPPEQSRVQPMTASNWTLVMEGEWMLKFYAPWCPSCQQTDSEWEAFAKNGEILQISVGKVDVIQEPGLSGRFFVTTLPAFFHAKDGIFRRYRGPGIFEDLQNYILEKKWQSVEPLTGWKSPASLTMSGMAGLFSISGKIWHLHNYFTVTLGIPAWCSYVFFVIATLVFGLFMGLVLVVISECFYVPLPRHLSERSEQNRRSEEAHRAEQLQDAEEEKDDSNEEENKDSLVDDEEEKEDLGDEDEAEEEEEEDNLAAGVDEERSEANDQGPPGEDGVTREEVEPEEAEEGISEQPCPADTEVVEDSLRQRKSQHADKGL
thermal stability z-score (potassium arsenate): 0.19
thermal stability z-score (lipoamide; [1]): -1.34
thermal stability z-score (lipoamide; arsenate co-treatment: none): -1.22

KIAA0368|ECM29
thermal stability z-score (potassium arsenate): 0.537
thermal stability z-score (lipoamide; [1]): -0.212
thermal stability z-score (lipoamide; arsenate co-treatment: none): 0.501

HAUS2 (UniProt Q9NVX0)
thermal stability z-score (potassium arsenate): 0.0695
thermal stability z-score (lipoamide; [1]): -0.143
thermal stability z-score (lipoamide; arsenate co-treatment: none): -0.261

SPAG7 (UniProt O75391)
Sequence of UniProt O75391 (O75391 whole entry): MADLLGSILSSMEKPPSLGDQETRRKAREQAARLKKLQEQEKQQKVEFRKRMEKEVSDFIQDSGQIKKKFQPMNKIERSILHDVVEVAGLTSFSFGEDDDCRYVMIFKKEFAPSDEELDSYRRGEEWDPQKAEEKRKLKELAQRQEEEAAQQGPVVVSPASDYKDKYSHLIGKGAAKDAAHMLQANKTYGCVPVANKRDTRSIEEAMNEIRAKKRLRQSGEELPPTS
thermal stability z-score (potassium arsenate): -0.214
thermal stability z-score (lipoamide; [1]): 0.493
thermal stability z-score (lipoamide; arsenate co-treatment: none): 0.212

TANGO6 (UniProt Q9C0B7)
thermal stability z-score (potassium arsenate): 0.475
thermal stability z-score (lipoamide; [1]): -0.908
thermal stability z-score (lipoamide; arsenate co-treatment: none): -0.59

MRPL57 (UniProt Q9BQC6)
thermal stability z-score (potassium arsenate): 0.671
thermal stability z-score (lipoamide; [1]): 0.281
thermal stability z-score (lipoamide; arsenate co-treatment: none): 0.104

SRR (UniProt Q9GZT4)
thermal stability z-score (potassium arsenate): -0.393
thermal stability z-score (lipoamide; [1]): -0.139
thermal stability z-score (lipoamide; arsenate co-treatment: none): -0.118

C20ORF24 (UniProt Q9BUV8)
thermal stability z-score (potassium arsenate): -0.477
thermal stability z-score (lipoamide; [1]): 0.799
thermal stability z-score (lipoamide; arsenate co-treatment: none): 0.361

HOMER3 (UniProt Q9NSC5)
thermal stability z-score (potassium arsenate): 0.462
thermal stability z-score (lipoamide; [1]): 0.5
thermal stability z-score (lipoamide; arsenate co-treatment: none): 0.526

CERS2 (UniProt Q96G23)
thermal stability z-score (potassium arsenate): -0.575
thermal stability z-score (lipoamide; [1]): -0.901
thermal stability z-score (lipoamide; arsenate co-treatment: none): -1.12

TRIP11 (UniProt Q15643)
thermal stability z-score (potassium arsenate): 0.782
thermal stability z-score (lipoamide; [1]): -2.35
thermal stability z-score (lipoamide; arsenate co-treatment: none): -0.484

COLGALT1 (UniProt Q8NBJ5)
thermal stability z-score (potassium arsenate): 0.633
thermal stability z-score (lipoamide; [1]): -4.85
thermal stability z-score (lipoamide; arsenate co-treatment: none): -4.14

CCDC22 (UniProt O60826)
thermal stability z-score (potassium arsenate): 0.0749
thermal stability z-score (lipoamide; [1]): -0.152
thermal stability z-score (lipoamide; arsenate co-treatment: none): -0.59

F11R (UniProt Q9Y624)
thermal stability z-score (potassium arsenate): 0.151
thermal stability z-score (lipoamide; [1]): 0.865
thermal stability z-score (lipoamide; arsenate co-treatment: none): 0.653

USP39 (UniProt Q53GS9)
Sequence of UniProt Q53GS9 (Q53GS9 whole entry): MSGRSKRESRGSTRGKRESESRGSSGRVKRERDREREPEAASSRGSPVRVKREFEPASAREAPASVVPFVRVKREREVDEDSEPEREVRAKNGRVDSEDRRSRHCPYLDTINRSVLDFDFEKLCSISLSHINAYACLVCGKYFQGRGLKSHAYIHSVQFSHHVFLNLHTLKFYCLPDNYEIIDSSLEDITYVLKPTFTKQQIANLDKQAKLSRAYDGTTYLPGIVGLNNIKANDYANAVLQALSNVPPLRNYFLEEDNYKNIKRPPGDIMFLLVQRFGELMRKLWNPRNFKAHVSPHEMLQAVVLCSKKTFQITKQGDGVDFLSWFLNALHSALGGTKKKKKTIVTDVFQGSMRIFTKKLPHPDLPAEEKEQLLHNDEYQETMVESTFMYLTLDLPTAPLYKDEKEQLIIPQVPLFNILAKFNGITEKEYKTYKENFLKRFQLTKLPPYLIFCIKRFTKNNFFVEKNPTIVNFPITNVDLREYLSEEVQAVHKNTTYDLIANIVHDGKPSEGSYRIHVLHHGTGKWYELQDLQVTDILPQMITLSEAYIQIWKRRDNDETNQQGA
thermal stability z-score (potassium arsenate): -0.489
thermal stability z-score (lipoamide; [1]): -0.384
thermal stability z-score (lipoamide; arsenate co-treatment: none): -0.174

DERL1 (UniProt Q9BUN8)
thermal stability z-score (potassium arsenate): -0.00515
thermal stability z-score (lipoamide; [1]): -0.177
thermal stability z-score (lipoamide; arsenate co-treatment: none): -0.185

PAFAH1B1 (UniProt P43034)
thermal stability z-score (potassium arsenate): -0.241
thermal stability z-score (lipoamide; [1]): 0.258
thermal stability z-score (lipoamide; arsenate co-treatment: none): -0.161

NIT2 (UniProt Q9NQR4)
thermal stability z-score (potassium arsenate): 0.0727
thermal stability z-score (lipoamide; [1]): 0.25
thermal stability z-score (lipoamide; arsenate co-treatment: none): 0.109

CMTR1 (UniProt Q8N1G2)
thermal stability z-score (potassium arsenate): 1.15
thermal stability z-score (lipoamide; [1]): -0.292
thermal stability z-score (lipoamide; arsenate co-treatment: none): 0.406

FA2H (UniProt Q7L5A8)
thermal stability z-score (potassium arsenate): -0.327
thermal stability z-score (lipoamide; [1]): -0.355
thermal stability z-score (lipoamide; arsenate co-treatment: none): 0.132

COPS6 (UniProt Q7L5N1)
Sequence of UniProt Q7L5N1 (Q7L5N1 whole entry): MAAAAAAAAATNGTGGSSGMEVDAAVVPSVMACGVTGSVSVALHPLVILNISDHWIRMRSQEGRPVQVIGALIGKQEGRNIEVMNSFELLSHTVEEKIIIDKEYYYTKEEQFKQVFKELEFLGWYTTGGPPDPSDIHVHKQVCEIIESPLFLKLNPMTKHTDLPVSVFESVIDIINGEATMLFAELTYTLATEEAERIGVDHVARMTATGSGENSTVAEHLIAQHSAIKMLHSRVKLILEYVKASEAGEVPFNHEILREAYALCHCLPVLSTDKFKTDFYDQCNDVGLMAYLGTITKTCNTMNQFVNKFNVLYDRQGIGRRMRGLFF
thermal stability z-score (potassium arsenate): -0.236
thermal stability z-score (lipoamide; [1]): 0.0852
thermal stability z-score (lipoamide; arsenate co-treatment: none): -0.522

STX3 (UniProt Q13277)
Sequence of UniProt Q13277 (Q13277 whole entry): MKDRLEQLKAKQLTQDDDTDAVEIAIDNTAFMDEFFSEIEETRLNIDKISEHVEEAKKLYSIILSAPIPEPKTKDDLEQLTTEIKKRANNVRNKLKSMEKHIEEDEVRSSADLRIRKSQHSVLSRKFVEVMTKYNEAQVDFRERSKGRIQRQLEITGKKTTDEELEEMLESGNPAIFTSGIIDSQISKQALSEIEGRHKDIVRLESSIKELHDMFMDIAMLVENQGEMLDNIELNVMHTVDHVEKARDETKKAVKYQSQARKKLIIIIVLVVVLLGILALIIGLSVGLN
thermal stability z-score (potassium arsenate): -0.39
thermal stability z-score (lipoamide; [1]): 0.221
thermal stability z-score (lipoamide; arsenate co-treatment: none): -0.315

MLX (UniProt Q9UH92)
thermal stability z-score (potassium arsenate): 0.0805
thermal stability z-score (lipoamide; [1]): -0.0303
thermal stability z-score (lipoamide; arsenate co-treatment: none): -0.272

SKA3 (UniProt Q8IX90)
thermal stability z-score (potassium arsenate): -0.18
thermal stability z-score (lipoamide; [1]): -0.0726
thermal stability z-score (lipoamide; arsenate co-treatment: none): 0.132

RAB6A (UniProt P20340)
thermal stability z-score (potassium arsenate): 0.284
thermal stability z-score (lipoamide; [1]): 0.448
thermal stability z-score (lipoamide; arsenate co-treatment: none): 0.693

TANC1 (UniProt Q9C0D5)
thermal stability z-score (potassium arsenate): 1.14
thermal stability z-score (lipoamide; [1]): 0.142
thermal stability z-score (lipoamide; arsenate co-treatment: none): 1.34

CPM (UniProt P14384)
thermal stability z-score (potassium arsenate): 0.405
thermal stability z-score (lipoamide; [1]): 0.0529
thermal stability z-score (lipoamide; arsenate co-treatment: none): -0.163
